This is an account of results in ChEMBL document CHEMBL1201862, “PubChem BioAssay data set” (2004).

Some test systems named below: 786-0; ACHN; HL-60; HT-29; Hs-578T; KM12; M14; MDA-MB-231; MOLT-4; NCI/ADR-RES; OVCAR-3; OVCAR-5; SF-268; SK-MEL-2; SNB-75; SR; SW-620; UACC-257; A498.
Common to all, as to assay: NCI anticancer screen, dose series, 48 h

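Cells were grown in 96-well plates and exposed to each compound for 48 hours at five concentrations; endpoints were interpolated linearly between bracketing concentrations, or set to the highest concentration if not reached. The concentration for 50% growth inhibition is given as GI50.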 Calls of active or inactive are those of the source. Rule as the data show it: active = GI50 up to about 1.1 µM and inactive = higher. Where only a bound is given, the exact number is not on record here.

For the compound `CC12OC(=O)[C@@]3(O)CCC4C(C[C@H]5O[C@]56CC=CC(=O)[C@]46C)C45OC[C@H]6C(=O)O[C@@H]1C[C@@]6(C)[C@H](C4=O)C23O5` (some centres not stated), the GI50 is 0.659 µM (active) in the test with 786-0; 1.84 µM (inactive) with ACHN; 0.121 µM (active) in the test on HL-60; 2.11 µM (inactive) in the test on HT-29; 5.47 µM (inactive) in the test with Hs-578T; 1.85 µM (inactive) in the test with KM12. Also, the GI50 with M14 is 1.57 µM (inactive); with MDA-MB-231 it was 0.885 µM (active); in the test on MOLT-4, 0.673 µM (active); in the test with NCI/ADR-RES, 8.51 µM (inactive); with OVCAR-3, 0.676 µM (active); in the test on OVCAR-5, 3.34 µM (inactive). Also, the GI50 in the test with SF-268 was 0.309 µM (active); in the test with SK-MEL-2, 3.01 µM (inactive); in the test on SNB-75, 6.79 µM (inactive); in the test on SR, 0.392 µM (active); in the test with SW-620, 0.671 µM (active); in the test on UACC-257, 1.32 µM (inactive).

With `C#C[C@]1(O)CC[C@H]2[C@@H]3CCC4=C/C(=N/NC(=O)c5cccc6c(=O)c7ccccc7[nH]c56)CCC4[C@H]3CC[C@@]21C` (some centres not stated), the GI50 is 35.6 µM (inactive) in the test with 786-0; 65.6 µM (inactive) in the test with ACHN; 26.4 µM (inactive) in the test on HL-60; 30.3 µM (inactive) with HT-29; 32.1 µM (inactive) in the test on Hs-578T; 25.5 µM (inactive) with KM12. The GI50 in the test with M14 was 59.8 µM (inactive); in the test with MDA-MB-231, > 100 µM (inactive); in the test on MOLT-4, 24.1 µM (inactive); in the test with NCI/ADR-RES it was 55.5 µM (inactive); in the test with OVCAR-3, 32.3 µM (inactive); in the test on OVCAR-5, > 100 µM (inactive). The GI50 with SF-268 was > 100 µM (inactive); with SK-MEL-2 it was 33 µM (inactive); in the test on SNB-75 it was 15 µM (inactive); in the test with SR, 28.4 µM (inactive); in the test on SW-620, 49.8 µM (inactive); in the test on UACC-257, 35.5 µM (inactive).

Consider `O=[N+]([O-])c1cc(C(F)(F)F)ccc1S(=O)(=O)N[C@@H]1CCCC[C@H]1NS(=O)(=O)c1ccc(C(F)(F)F)cc1[N+](=O)[O-]`, for which the GI50 in the test with 786-0 was 3.47 µM (inactive); in the test with A498, 5.43 µM (inactive); with ACHN, 2.7 µM (inactive); in the test on HL-60, 1.39 µM (inactive); with HT-29, 3.37 µM (inactive); with Hs-578T, 2.48 µM (inactive). Also, the GI50 in the test with KM12 is 3.08 µM (inactive); in the test with M14 it was 2.75 µM (inactive); with MDA-MB-231, 2.77 µM (inactive); with NCI/ADR-RES it was 2.51 µM (inactive); with OVCAR-3 it was 2.38 µM (inactive); in the test on OVCAR-5, 56.2 µM (inactive). Besides, the GI50 is 2.49 µM (inactive) with SF-268; 2.82 µM (inactive) in the test with SK-MEL-2; 1.83 µM (inactive) in the test on SNB-75; 3.78 µM (inactive) in the test with SW-620; 8.07 µM (inactive) with UACC-257.

Turning to `CC1(C)[C@@H]2CC[C@]1(C)[C@H](OC(=O)/C=C/c1ccccc1)C2`, the GI50 in the test with 786-0 is 18.1 µM (inactive); with A498 it was 18.3 µM (inactive); in the test with ACHN, 18 µM (inactive); in the test on HL-60, 18.4 µM (inactive); in the test with HT-29 it was 16.6 µM (inactive); in the test with Hs-578T, 19.5 µM (inactive). For the same compound, the GI50 in the test with KM12 was 20.8 µM (inactive); in the test on M14 it was 29.9 µM (inactive); in the test with MDA-MB-231, 19.3 µM (inactive); in the test on NCI/ADR-RES it was 18.9 µM (inactive); in the test on OVCAR-3, < 0.01 µM (active); with OVCAR-5 it was 19.6 µM (inactive). For the same compound, the GI50 in the test with SF-268 is 17.3 µM (inactive); with SK-MEL-2, 17.4 µM (inactive); with SNB-75, 16.2 µM (inactive); with SW-620 it was 15.5 µM (inactive); with UACC-257, 23.8 µM (inactive).

As for `COc1ccccc1C1(c2c(OC)c(=O)c2=O)SCCCS1`, the GI50 is > 100 µM (inactive) with 786-0; 49 µM (inactive) with A498; > 100 µM (inactive) in the test on ACHN; > 100 µM (inactive) with HL-60; > 100 µM (inactive) with HT-29; 35 µM (inactive) with Hs-578T. For the same compound, the GI50 was > 100 µM (inactive) with KM12; > 100 µM (inactive) in the test with M14; 83.2 µM (inactive) in the test on MDA-MB-231; 72.4 µM (inactive) in the test on MOLT-4; 73.6 µM (inactive) in the test on NCI/ADR-RES; 86.7 µM (inactive) with OVCAR-3. In addition, the GI50 with OVCAR-5 is 34.4 µM (inactive); in the test on SF-268 it was > 100 µM (inactive); in the test with SK-MEL-2, > 100 µM (inactive); with SNB-75 it was 71.8 µM (inactive); in the test with SW-620, > 100 µM (inactive); in the test on UACC-257, 85.1 µM (inactive).

On to `CNC(=O)c1ccc(C(=O)NCCCCCN(O)C(=O)CCC(=O)NCCCCCN(O)C(=O)CCC(=O)NCCCCCN(O)C(C)=O)c(O)c1O`, for which the GI50 in the test on 786-0 was 69.3 µM (inactive); in the test on A498, > 100 µM (inactive); with ACHN, 32.8 µM (inactive); in the test on HL-60, 23.8 µM (inactive); in the test with HT-29 it was 38.9 µM (inactive); with Hs-578T, > 100 µM (inactive). Besides, the GI50 was 58.5 µM (inactive) in the test on KM12; 59.8 µM (inactive) in the test on M14; 53.7 µM (inactive) in the test on MDA-MB-231; 41.6 µM (inactive) in the test with NCI/ADR-RES; 8.57 µM (inactive) in the test on OVCAR-3; > 100 µM (inactive) in the test with OVCAR-5. Moreover, the GI50 in the test with SF-268 is 23.1 µM (inactive); in the test on SK-MEL-2 it was 95.7 µM (inactive); in the test on SNB-75, > 100 µM (inactive); in the test on SW-620, 39.3 µM (inactive); with UACC-257 it was 68.5 µM (inactive).

Turning to `Cc1ccc([C@@H]2[C@@H](C(=O)c3ccccn3)[C@H](c3ccc(C)cc3)C[C@](O)(c3ccccn3)[C@H]2C(=O)c2ccccn2)cc1`, the GI50 in the test on 786-0 was 1.81 µM (inactive); in the test on ACHN it was 2.51 µM (inactive); in the test with HL-60, 2.52 µM (inactive); with HT-29, 2.97 µM (inactive); in the test with Hs-578T, 26.5 µM (inactive); in the test with KM12, 7.98 µM (inactive). Also, the GI50 in the test on M14 was 1.31 µM (inactive); in the test on MDA-MB-231 it was > 32 µM (inactive); with MOLT-4 it was 2.07 µM (inactive); in the test with NCI/ADR-RES it was 2.86 µM (inactive); in the test on OVCAR-3 it was 7.8 µM (inactive); with OVCAR-5 it was 8.93 µM (inactive). The GI50 in the test with SF-268 was 0.946 µM (active); in the test on SK-MEL-2 it was 3.46 µM (inactive); with SNB-75, 3.33 µM (inactive); in the test with SR, 0.495 µM (active); in the test with SW-620, > 22.6 µM (inactive); with UACC-257, 8.04 µM (inactive).

For the compound `CCCn1c(=O)c(N2CCN(c3ccccc3)CC2)nc2sc3ccccc3c21`, the GI50 is > 100 µM (inactive) with 786-0; > 100 µM (inactive) in the test with A498; > 100 µM (inactive) in the test on ACHN; 49.7 µM (inactive) in the test with HL-60; > 100 µM (inactive) with HT-29; > 100 µM (inactive) in the test with Hs-578T. Also, the GI50 in the test on KM12, in the test on M14, in the test on MDA-MB-231, with MOLT-4, with NCI/ADR-RES and with OVCAR-3 was > 100 µM (inactive) throughout. For the same compound, the GI50 in the test with OVCAR-5, with SF-268, in the test with SK-MEL-2, in the test on SNB-75, with SW-620 and with UACC-257 was > 100 µM (inactive) each time.

For `Cc1ccc(C(=O)O)c(/C=C2\Cc3cc(C)cc(C)c3C2=O)c1`, the GI50 with 786-0 was > 100 µM (inactive); with A498 it was 81.1 µM (inactive); in the test with ACHN, 74 µM (inactive); in the test with HL-60, 38.6 µM (inactive); with HT-29, > 100 µM (inactive); with Hs-578T, 93.8 µM (inactive). The GI50 is 65.2 µM (inactive) in the test with KM12; 41.3 µM (inactive) with MDA-MB-231; 53.2 µM (inactive) in the test on MOLT-4; 36 µM (inactive) in the test with OVCAR-3; > 100 µM (inactive) in the test with SF-268; > 100 µM (inactive) in the test with SK-MEL-2. Besides, the GI50 was 63.5 µM (inactive) with SNB-75, 46 µM (inactive) in the test on SR, > 100 µM (inactive) in the test with SW-620 and 90.6 µM (inactive) in the test on UACC-257.

For `Cc1nn(-c2ccccc2)c(C)c1/C=N/N=C1\S/C(=C\c2ccc(Cl)cc2)C(=O)N1c1ccccc1`, the GI50 in the test with 786-0 was 3.13 µM (inactive); in the test on A498 it was > 100 µM (inactive); in the test on ACHN, 68.7 µM (inactive); in the test with HL-60 it was 11.8 µM (inactive); in the test on HT-29 it was 16.6 µM (inactive); with Hs-578T, 5.65 µM (inactive). Besides, the GI50 in the test on KM12 is 7.67 µM (inactive); in the test on M14, > 100 µM (inactive); in the test with MDA-MB-231, 34.7 µM (inactive); in the test with MOLT-4, 14.2 µM (inactive); in the test with NCI/ADR-RES, 17.2 µM (inactive); in the test on OVCAR-3 it was > 100 µM (inactive). Besides, the GI50 in the test on OVCAR-5 is > 100 µM (inactive); with SF-268, 51.5 µM (inactive); with SK-MEL-2, > 100 µM (inactive); with SNB-75, 11.6 µM (inactive); in the test on SW-620 it was 9.2 µM (inactive); in the test on UACC-257 it was > 100 µM (inactive).

`Cc1ccc(S(=O)(=O)NC(=O)NC(C(=O)O)C(C)O)cc1` (configuration not stated): the GI50 in the test on 786-0, in the test with ACHN, in the test with HL-60, in the test on HT-29, with Hs-578T and with KM12 was > 100 µM (inactive) throughout. In addition, the GI50 in the test with M14, in the test with MDA-MB-231, with MOLT-4, with NCI/ADR-RES, in the test on OVCAR-5 and in the test with SF-268 was > 100 µM (inactive) throughout. Besides, the GI50 in the test with SK-MEL-2 is > 100 µM (inactive); with SNB-75 it was 33.3 µM (inactive); in the test with SR, > 100 µM (inactive); with SW-620, > 100 µM (inactive); with UACC-257, > 100 µM (inactive).
